Measurements taken from ChEMBL document CHEMBL1909046, “DrugMatrix in vitro pharmacology data”.

Tests used:
[1] = biological target: Delta-type opioid receptor (Homo sapiens, UniProt P41143); type: cell membranes, HEK293, Membrane; also: in other assays of this panel Not Active means under 50% inhibition at 10 µM
[2] = biological target: T1, Cytochrome P450 1A2 (Homo sapiens, UniProt P05177); conditions: bti-tn-5b1-4; also: in other assays of this panel Not Active means under 50% inhibition at 10 µM
T1 sequence (P05177 whole entry): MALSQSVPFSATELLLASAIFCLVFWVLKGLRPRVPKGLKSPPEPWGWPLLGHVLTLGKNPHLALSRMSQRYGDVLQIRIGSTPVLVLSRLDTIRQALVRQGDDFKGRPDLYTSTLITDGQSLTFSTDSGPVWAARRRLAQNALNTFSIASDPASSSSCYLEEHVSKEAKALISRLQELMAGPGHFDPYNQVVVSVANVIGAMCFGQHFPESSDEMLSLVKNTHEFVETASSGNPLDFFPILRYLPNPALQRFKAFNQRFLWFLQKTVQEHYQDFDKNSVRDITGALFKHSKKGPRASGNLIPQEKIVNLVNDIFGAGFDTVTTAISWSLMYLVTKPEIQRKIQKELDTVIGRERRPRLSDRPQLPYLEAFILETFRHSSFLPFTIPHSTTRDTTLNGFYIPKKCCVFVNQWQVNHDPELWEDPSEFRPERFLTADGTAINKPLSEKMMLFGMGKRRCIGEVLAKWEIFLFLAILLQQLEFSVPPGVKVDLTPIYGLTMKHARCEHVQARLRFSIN

[3] = biological target: T2, Angiotensin-converting enzyme (Oryctolagus cuniculus, UniProt P12822); type: tissue-based, Lung;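 also: enzymatic inhibition of angiotensin-converting enzyme measured with FAPGG as the substrate; in other assays of this panel Not Active means under 50% inhibition at 10 µM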
T2 sequence (P12822 whole entry): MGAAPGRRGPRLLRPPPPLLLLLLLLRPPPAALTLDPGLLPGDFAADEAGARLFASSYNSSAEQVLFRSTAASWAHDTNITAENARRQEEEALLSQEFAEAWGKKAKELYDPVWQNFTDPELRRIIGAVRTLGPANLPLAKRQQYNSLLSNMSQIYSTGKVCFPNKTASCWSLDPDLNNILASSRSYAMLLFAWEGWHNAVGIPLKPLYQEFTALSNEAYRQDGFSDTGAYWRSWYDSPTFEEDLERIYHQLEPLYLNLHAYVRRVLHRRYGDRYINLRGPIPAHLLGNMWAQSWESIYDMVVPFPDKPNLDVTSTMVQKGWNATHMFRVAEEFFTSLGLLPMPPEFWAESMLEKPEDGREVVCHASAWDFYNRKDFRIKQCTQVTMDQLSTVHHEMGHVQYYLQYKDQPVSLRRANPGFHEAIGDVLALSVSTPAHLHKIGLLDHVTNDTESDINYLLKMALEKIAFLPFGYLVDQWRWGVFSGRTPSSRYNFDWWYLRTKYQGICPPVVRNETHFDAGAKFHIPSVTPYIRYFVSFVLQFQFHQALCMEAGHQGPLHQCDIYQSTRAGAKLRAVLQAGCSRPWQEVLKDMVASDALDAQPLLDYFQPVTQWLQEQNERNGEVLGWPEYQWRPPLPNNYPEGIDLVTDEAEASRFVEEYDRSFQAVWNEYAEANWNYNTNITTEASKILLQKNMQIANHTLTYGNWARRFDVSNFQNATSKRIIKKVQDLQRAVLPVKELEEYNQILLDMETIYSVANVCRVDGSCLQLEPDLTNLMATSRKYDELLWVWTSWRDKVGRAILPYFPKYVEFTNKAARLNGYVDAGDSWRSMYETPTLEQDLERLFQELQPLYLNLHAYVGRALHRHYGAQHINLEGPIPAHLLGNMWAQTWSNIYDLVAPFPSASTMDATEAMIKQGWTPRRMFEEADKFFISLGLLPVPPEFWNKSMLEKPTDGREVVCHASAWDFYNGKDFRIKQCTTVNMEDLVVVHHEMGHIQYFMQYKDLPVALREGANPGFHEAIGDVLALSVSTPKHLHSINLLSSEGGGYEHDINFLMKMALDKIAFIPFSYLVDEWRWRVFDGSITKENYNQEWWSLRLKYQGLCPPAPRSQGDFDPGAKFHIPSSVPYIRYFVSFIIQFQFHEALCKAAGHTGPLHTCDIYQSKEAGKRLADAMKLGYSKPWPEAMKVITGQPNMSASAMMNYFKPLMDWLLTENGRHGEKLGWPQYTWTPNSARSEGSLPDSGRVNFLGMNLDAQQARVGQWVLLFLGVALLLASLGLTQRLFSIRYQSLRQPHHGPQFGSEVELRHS

[4] = DRUGMATRIX: Tumor Necrosis Factor (TNF), Non-Selective radioligand binding (ligand: [125I] TNF-alpha); type: cell membranes, Membrane; conditions: u-937; Not Active = under 50% inhibition at 10 µM
[5] = biological target: D(3) dopamine receptor (Homo sapiens, UniProt P35462); experiment: DRUGMATRIX: Dopamine D3 radioligand binding (ligand: [3H] Spiperone); type: cell membranes, CHO, Membrane; conditions: for Ki: read-out: Ki
Sequence of D(3) dopamine receptor (P35462 whole entry): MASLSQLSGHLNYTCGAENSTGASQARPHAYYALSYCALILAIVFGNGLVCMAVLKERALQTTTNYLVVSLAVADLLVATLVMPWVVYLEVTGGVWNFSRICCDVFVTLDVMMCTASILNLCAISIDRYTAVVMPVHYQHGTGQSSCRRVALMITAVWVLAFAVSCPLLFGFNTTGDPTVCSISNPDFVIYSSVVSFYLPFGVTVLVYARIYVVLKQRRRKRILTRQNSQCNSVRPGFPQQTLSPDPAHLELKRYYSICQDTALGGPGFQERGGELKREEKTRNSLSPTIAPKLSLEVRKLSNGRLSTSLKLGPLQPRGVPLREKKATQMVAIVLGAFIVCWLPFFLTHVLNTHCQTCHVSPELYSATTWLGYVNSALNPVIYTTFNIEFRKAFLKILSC

[6] = biological target: T3, Alpha-1D adrenergic receptor (Homo sapiens, UniProt P25100); type: cell membranes, HEK293, Membrane; also: in other assays of this panel Not Active means under 50% inhibition at 10 µM
T3 sequence (P25100 whole entry): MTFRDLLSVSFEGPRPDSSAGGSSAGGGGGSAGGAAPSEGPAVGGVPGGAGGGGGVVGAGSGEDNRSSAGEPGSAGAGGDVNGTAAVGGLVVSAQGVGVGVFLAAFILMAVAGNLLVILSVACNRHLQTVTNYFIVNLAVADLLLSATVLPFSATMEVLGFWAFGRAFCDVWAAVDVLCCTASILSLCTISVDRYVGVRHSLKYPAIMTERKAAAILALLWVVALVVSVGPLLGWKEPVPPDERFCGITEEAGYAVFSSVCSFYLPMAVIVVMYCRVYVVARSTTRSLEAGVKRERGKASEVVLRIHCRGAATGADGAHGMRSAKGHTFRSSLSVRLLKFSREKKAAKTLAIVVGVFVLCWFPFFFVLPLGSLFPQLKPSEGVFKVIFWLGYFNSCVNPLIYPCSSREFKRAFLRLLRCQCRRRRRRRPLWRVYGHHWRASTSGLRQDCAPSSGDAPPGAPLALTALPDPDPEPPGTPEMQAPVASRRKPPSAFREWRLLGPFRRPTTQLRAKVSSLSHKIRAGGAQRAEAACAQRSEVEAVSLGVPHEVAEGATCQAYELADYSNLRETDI

Sequence of Delta-type opioid receptor (P41143 whole entry): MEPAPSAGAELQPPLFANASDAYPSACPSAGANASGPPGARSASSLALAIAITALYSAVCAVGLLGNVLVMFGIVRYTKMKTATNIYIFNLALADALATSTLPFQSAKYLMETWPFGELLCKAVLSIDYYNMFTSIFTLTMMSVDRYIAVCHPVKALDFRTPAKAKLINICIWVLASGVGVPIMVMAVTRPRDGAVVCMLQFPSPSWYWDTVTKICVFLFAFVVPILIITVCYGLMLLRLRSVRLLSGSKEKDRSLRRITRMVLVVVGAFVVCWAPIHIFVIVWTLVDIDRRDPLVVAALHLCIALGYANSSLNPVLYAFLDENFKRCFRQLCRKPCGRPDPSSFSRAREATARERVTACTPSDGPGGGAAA

SMILES | IC50 ([1]; read-out: IC50) [nM] | Ki ([1]; read-out: Ki) [nM] | IC50 [2] | Ki [2] | IC50 [3] | IC50 [4] | Ki [4] | IC50 ([5]; cho) | IC50 ([6]; hek293) | IC50 ([1]; hek293) | IC50 ([5]; read-out: IC50) [nM] | Ki [5] [nM] | IC50 ([6]; read-out: IC50) [nM] | Ki ([6]; read-out: Ki) [nM]
Cc1c(O)cccc1C(=O)N[C@@H](CSc1ccccc1)[C@H](O)CN1C[C@H]2CCCC[C@H]2C[C@H]1C(=O)NC(C)(C)C | 66100 | 23300 | Not Active | Not Active | Not Active | Not Active | Not Active | Not Active | Not Active | – | – | – | – | –
CC(O)COC[C@H]1O[C@@H]2O[C@H]3[C@H](O)[C@@H](O)[C@@H](O[C@H]4[C@H](O)[C@@H](O)[C@@H](O[C@H]5[C@H](O)[C@@H](O)[C@@H](O[C@H]6[C@H](O)[C@@H](O)[C@@H](O[C@H]7[C@H](O)[C@@H](O)[C@@H](O[C@H]8[C@H](O)[C@@H](O)[C@@H](O[C@H]1[C@H](O)[C@H]2O)O[C@@H]8COCC(C)O)O[C@@H]7COCC(C)O)O[C@@H]6COCC(C)O)O[C@@H]5COCC(C)O)O[C@@H]4COCC(C)O)O[C@@H]3COCC(C)O (stereo partly drawn) [2-HYDROXYPROPYL-BETA-CYCLODEXTRIN] | – | – | Not Active | Not Active | Not Active | Not Active | Not Active | Not Active | Not Active | Not Active | – | – | – | –
NC(=O)c1cccc(N)c1 [3-AMINOBENZAMIDE] | – | – | Not Active | Not Active | Not Active | Not Active | Not Active | Not Active | Not Active | Not Active | – | – | – | –
C[C@H]1O[C@H](O[C@H]2[C@H](O)[C@@H](O)[C@@H](O[C@H]3[C@H](O)[C@@H](O)C(O)O[C@@H]3CO)O[C@@H]2CO)[C@H](O)[C@@H](O)[C@@H]1N[C@H]1C=C(CO)[C@@H](O)[C@H](O)[C@H]1O (stereo partly specified) [ACARBOSE] | – | – | Not Active | Not Active | Not Active | Not Active | Not Active | Not Active | Not Active | Not Active | – | – | – | –
CC[C@H]1[C@@H]2C[C@H]3[C@@H]4N(C)c5ccccc5[C@]45C[C@@H]([C@@H]2[C@H]5O)N3[C@@H]1O [AJMALINE] | – | – | Not Active | Not Active | Not Active | Not Active | Not Active | Not Active | Not Active | Not Active | – | – | – | –
NCCCNCCSP(=O)(O)O [AMIFOSTINE] | – | – | Not Active | Not Active | Not Active | Not Active | Not Active | – | Not Active | Not Active | 1930 | 655 | – | –
CN(C)CCC=C1c2ccccc2CCc2ccccc21 [AMITRIPTYLINE] | – | – | Not Active | Not Active | Not Active | Not Active | Not Active | – | – | Not Active | 182 | 62 | 105 | 52
CC(=O)Oc1ccccc1C(=O)O [ASPIRIN] | – | – | Not Active | Not Active | Not Active | Not Active | Not Active | Not Active | Not Active | Not Active | – | – | – | –
CC(=O)OC[C@H]1O[C@@H](n2ncc(=O)[nH]c2=O)[C@H](OC(C)=O)[C@@H]1OC(C)=O [AZARIBINE] | – | – | Not Active | Not Active | Not Active | Not Active | Not Active | Not Active | Not Active | Not Active | – | – | – | –
C[C@H]1[C@H](NC(=O)/C(=N\OC(C)(C)C(=O)O)c2csc(N)n2)C(=O)N1S(=O)(=O)O [AZTREONAM] | – | – | Not Active | Not Active | Not Active | Not Active | Not Active | Not Active | Not Active | Not Active | – | – | – | –
O=C(O)CCNC(=O)c1ccc(/N=N/c2ccc(O)c(C(=O)O)c2)cc1 [BALSALAZIDE] | – | – | Not Active | Not Active | Not Active | Not Active | Not Active | Not Active | Not Active | Not Active | – | – | – | –
COc1cc(OC)c(C(=O)CCCN2CCCC2)c(OC)c1 [BUFLOMEDIL] | – | – | Not Active | Not Active | Not Active | Not Active | Not Active | Not Active | Not Active | Not Active | – | – | – | –
Cn1c(=O)c2c(ncn2C)n(C)c1=O [CAFFEINE] | – | – | Not Active | Not Active | Not Active | Not Active | Not Active | Not Active | Not Active | Not Active | – | – | – | –
ClC(Cl)(Cl)Cl [CARBON TETRACHLORIDE] | – | – | Not Active | Not Active | Not Active | Not Active | Not Active | Not Active | Not Active | Not Active | – | – | – | –
CO/N=C(\C(=O)N[C@@H]1C(=O)N2C(C(=O)O)=C(COC(C)=O)CS[C@H]12)c1csc(N)n1 [CEFOTAXIME] | – | – | Not Active | Not Active | Not Active | Not Active | Not Active | Not Active | Not Active | Not Active | – | – | – | –
CNC1=Nc2ccc(Cl)cc2C(c2ccccc2)=[N+]([O-])C1 [CHLORDIAZEPOXIDE] | – | – | Not Active | Not Active | Not Active | Not Active | Not Active | Not Active | Not Active | Not Active | – | – | – | –
Cc1cc(O)cc(C)c1Cl [CHLOROXYLENOL] | – | – | Not Active | Not Active | Not Active | Not Active | Not Active | Not Active | Not Active | Not Active | – | – | – | –
CCCNC(=O)NS(=O)(=O)c1ccc(Cl)cc1 [CHLORPROPAMIDE] | – | – | Not Active | Not Active | Not Active | Not Active | Not Active | Not Active | Not Active | Not Active | – | – | – | –
NS(=O)(=O)c1cc(C2(O)NC(=O)c3ccccc32)ccc1Cl (stereo unspecified) [CHLORTHALIDONE] | – | – | Not Active | Not Active | Not Active | Not Active | Not Active | Not Active | Not Active | Not Active | – | – | – | –
